Tests used:
Assay type in all cases: in vivo
[1] = tested on: corn (Zea mays); assay: Test B pre-/postemergence plant response
Method in brief: (§1)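 Visual injury, 0–100 scale (100 = complete control), rated against controls after 13 to 15 days in greenhouse. Pre-emergence: seeds in loam/sand soil, treated at planting. Post-emergence: 1- to 4-leaf plants (2 to 18 cm) in peat/vermiculite medium. Compounds formulated in non-phytotoxic solvent with surfactant.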

[2] = tested on: Surinam grass (Brachiaria decumbens); assay: Test B pre-/postemergence plant response
Method in brief: as §1

[3] = tested on: Italian ryegrass (Lolium multiflorum); assay: Test B pre-/postemergence plant response
Method in brief: as §1

[4] = tested on: giant foxtail (Setaria faberii); assay: Test B pre-/postemergence plant response
Method in brief: as §1

[5] = tested on: downy bromegrass (Bromus tectorum); assay: Test B pre-/postemergence plant response
Method in brief: as §1

[6] = tested on: pigweed (Amaranthus retroflexus); assay: Test B pre-/postemergence plant response
Method in brief: as §1

[7] = tested on: blackgrass (Alopecurus myosuroides); assay: Test B pre-/postemergence plant response
Method in brief: as §1

[8] = tested on: morningglory (Ipomoea coccinea); assay: Test B pre-/postemergence plant response
Method in brief: as §1

[9] = tested on: wild oat (Avena fatua); assay: Test B pre-/postemergence plant response
Method in brief: as §1

[10] = tested on: cocklebur (Xanthium strumarium); assay: Test B pre-/postemergence plant response
Method in brief: as §1

[11] = tested on: canarygrass (Phalaris minor); assay: Test B postemergence plant response; conditions: Postemergence
Method in brief: (§2)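 Visual ratings from 0 (no effect) to 100 (complete control), made against controls 13–15 days after treatment, kept in a greenhouse. Compounds were applied postemergence to potted plants at the 1- to 4-leaf stage (2–18 cm).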

[12] = tested on: chickweed (Stellaria media); assay: Test B postemergence plant response; conditions: Postemergence
Method in brief: as §2

[13] = tested on: windgrass (Apera spica-venti); assay: Test B postemergence plant response; conditions: Postemergence
Method in brief: as §2

[14] = 250 g ai/ha, Preemergence, 0 to 100 scale
[15] = Postemergence, 31 g ai/ha, scale 0 to 100 (0 no effect, 100 complete control)
[16] = Postemergence, 62 g ai/ha, scale 0 (no effect) to 100 (complete control), 13 to 15 days
[17] = Postemergence, 125 g ai/ha, visual rating after 13 to 15 days, scale 0 (no effect) to 100 (complete control)
[18] = Postemergence, 250 g ai/ha, scale 0 to 100
[19] = Preemergence, 31 g ai/ha, scale 0 to 100 (0 no effect, 100 complete control)
[20] = Preemergence, 62 g ai/ha, scale 0 to 100 (0 no effect, 100 complete control)
[21] = Preemergence, 125 g ai/ha, 0 to 100 scale
[22] = 31 g ai/ha, scale 0 to 100 (0 no effect, 100 complete control)
[23] = 62 g ai/ha, scale 0 (no effect) to 100 (complete control), 13 to 15 days
[24] = 125 g ai/ha, visual rating after 13 to 15 days, scale 0 (no effect) to 100 (complete control)
[25] = Postemergence, 31 g ai/ha, 0 to 100 scale (0 no effect, 100 complete control)
[26] = Postemergence, 62 g ai/ha, scale 0 to 100 (0 no effect, 100 complete control)
[27] = Postemergence, 125 g ai/ha, scale 0 to 100 (0 no effect, 100 complete control)
[28] = Postemergence, 250 g ai/ha, scale 0 to 100 (0 no effect, 100 complete control), 13 to 15 days
[29] = 31 g ai/ha, 0 to 100 scale (0 no effect, 100 complete control)
[30] = 62 g ai/ha, scale 0 to 100 (0 no effect, 100 complete control)
[31] = 125 g ai/ha, scale 0 to 100 (0 no effect, 100 complete control)
[32] = 250 g ai/ha, scale 0 to 100 (0 no effect, 100 complete control), 13 to 15 days

Cc1ccccc1-n1c(-c2cccc(Cl)c2)ncc(C(=O)C2=C(O)CCCC2=O)c1=O [Compound 36]
Plant response rating, Corn [1, 14]: 0 | Plant response rating, Corn [1, 15]: 50 | Plant response rating, Corn [1, 16]: 55 | Plant response rating, Corn [1, 17]: 65 | Corn plant response rating [1, 18]: 85 | Plant response rating, Corn [1, 19]: 0 | Plant response rating, Corn [1, 20]: 0 | Corn plant response rating [1, 21]: 0 | Plant response rating, Surinam Grass [2, 14]: 100 | Plant response rating, Surinam Grass [2, 16]: 85 | Plant response rating, Surinam Grass [2, 17]: 85 | Plant response rating, Surinam Grass [2, 19]: 70 | Surinam Grass plant response rating [2, 21]: 100 | Plant response rating, Ryegrass, Italian [3, 14]: 0 | Plant response rating, Ryegrass, Italian [3, 16]: 5 | Plant response rating, Ryegrass, Italian [3, 17]: 10 | Plant response rating, Ryegrass, Italian [3, 19]: 0 | Ryegrass, Italian plant response rating [3, 21]: 0 | Plant response rating, Foxtail, Giant [4, 14]: 80 | Plant response rating, Foxtail, Giant [4, 15]: 95 | Plant response rating, Foxtail, Giant [4, 16]: 95 | Plant response rating, Foxtail, Giant [4, 17]: 98 | Foxtail, Giant plant response rating [4, 18]: 98 | Plant response rating, Foxtail, Giant [4, 19]: 10 | Plant response rating, Foxtail, Giant [4, 20]: 20 | Foxtail, Giant plant response rating [4, 21]: 65 | Plant response rating, Bromegrass, Downy [5, 14]: 10 | Plant response rating, Bromegrass, Downy [5, 15]: 30 | Plant response rating, Bromegrass, Downy [5, 16]: 30 | Plant response rating, Bromegrass, Downy [5, 17]: 45 | Bromegrass, Downy plant response rating [5, 18]: 65 | Plant response rating, Bromegrass, Downy [5, 19]: 0 | Plant response rating, Bromegrass, Downy [5, 20]: 0 | Bromegrass, Downy plant response rating [5, 21]: 0 | Plant response rating, Pigweed [6, 14]: 100 | Plant response rating, Pigweed [6, 16]: 85 | Plant response rating, Pigweed [6, 17]: 90 | Plant response rating, Pigweed [6, 19]: 100 | Pigweed plant response rating [6, 21]: 100 | Plant response rating, Blackgrass [7, 14]: 25 | Plant response rating, Blackgrass [7, 15]: 5 | Plant response rating, Blackgrass [7, 16]: 5 | Plant response rating, Blackgrass [7, 17]: 15 | Blackgrass plant response rating [7, 18]: 15 | Plant response rating, Blackgrass [7, 19]: 20 | Plant response rating, Blackgrass [7, 20]: 25 | Blackgrass plant response rating [7, 21]: 25 | Plant response rating, Morningglory [8, 14]: 20 | Plant response rating, Morningglory [8, 16]: 70 | Plant response rating, Morningglory [8, 17]: 75 | Plant response rating, Morningglory [8, 19]: 0 | Plant response rating, Morningglory [8, 20]: 0 | Morningglory plant response rating [8, 21]: 0 | Plant response rating, Oat, Wild [9, 14]: 0 | Plant response rating, Oat, Wild [9, 16]: 75 | Plant response rating, Oat, Wild [9, 17]: 75 | Plant response rating, Oat, Wild [9, 19]: 0 | Oat, Wild plant response rating [9, 21]: 0 | Plant response rating, Cocklebur [10, 14]: 80 | Plant response rating, Canarygrass [11, 22]: 40 | Plant response rating, Canarygrass [11, 23]: 45 | Plant response rating, Canarygrass [11, 24]: 50 | Canarygrass plant response rating ([11]; 250 g ai/ha, scale 0 to 100): 50 | Plant response rating, Chickweed [12, 22]: 85 | Plant response rating, Chickweed [12, 23]: 98 | Plant response rating, Chickweed [12, 24]: 100 | Chickweed plant response rating ([12]; 250 g ai/ha, scale 0 to 100): 100 | Plant response rating, Windgrass [13, 23]: 70 | Plant response rating, Windgrass [13, 24]: 80

COCCn1c(-c2cccc(C)c2)ncc(C(=O)C2=C(O)C3CCC(C3)C2=O)c1=O (stereo not shown) [Compound 233]
Plant response rating, Corn [1, 25]: 30 | Plant response rating, Corn [1, 26]: 50 | Plant response rating, Corn [1, 27]: 85 | Plant response rating, Corn [1, 28]: 85 | Plant response rating, Surinam Grass [2, 25]: 80 | Plant response rating, Surinam Grass [2, 26]: 85 | Plant response rating, Surinam Grass [2, 28]: 100 | Plant response rating, Ryegrass, Italian [3, 25]: 30 | Plant response rating, Ryegrass, Italian [3, 26]: 45 | Plant response rating, Ryegrass, Italian [3, 28]: 60 | Plant response rating, Foxtail, Giant [4, 25]: 90 | Plant response rating, Foxtail, Giant [4, 26]: 95 | Plant response rating, Foxtail, Giant [4, 27]: 98 | Plant response rating, Foxtail, Giant [4, 28]: 98 | Plant response rating, Bromegrass, Downy [5, 25]: 40 | Plant response rating, Bromegrass, Downy [5, 26]: 40 | Plant response rating, Bromegrass, Downy [5, 27]: 50 | Plant response rating, Bromegrass, Downy [5, 28]: 60 | Plant response rating, Pigweed [6, 25]: 85 | Plant response rating, Pigweed [6, 26]: 98 | Plant response rating, Blackgrass [7, 25]: 5 | Plant response rating, Blackgrass [7, 26]: 30 | Plant response rating, Blackgrass [7, 27]: 30 | Plant response rating, Blackgrass [7, 28]: 50 | Plant response rating, Morningglory [8, 25]: 65 | Plant response rating, Morningglory [8, 26]: 80 | Plant response rating, Morningglory [8, 27]: 98 | Plant response rating, Morningglory [8, 28]: 100 | Plant response rating, Oat, Wild [9, 25]: 30 | Plant response rating, Oat, Wild [9, 26]: 35 | Plant response rating, Oat, Wild [9, 28]: 60 | Plant response rating, Cocklebur [10, 25]: 90 | Plant response rating, Cocklebur [10, 26]: 100 | Plant response rating, Cocklebur [10, 27]: 100 | Plant response rating, Cocklebur [10, 28]: 100 | Plant response rating, Canarygrass [11, 29]: 0 | Plant response rating, Canarygrass [11, 30]: 5 | Plant response rating, Canarygrass [11, 31]: 10 | Plant response rating, Canarygrass [11, 32]: 20 | Plant response rating, Chickweed [12, 29]: 90 | Plant response rating, Chickweed [12, 30]: 95 | Plant response rating, Chickweed [12, 31]: 100 | Plant response rating, Chickweed [12, 32]: 100 | Plant response rating, Windgrass [13, 29]: 50 | Plant response rating, Windgrass [13, 30]: 55 | Plant response rating, Windgrass [13, 32]: 60
